The target in one assay is T1, HIV-1 WT RT (Human immunodeficiency virus type 1 group M subtype B, UniProt P03366).
T1 construct: purified RT protein (0.015 mg/mL) was incubated in a 100 µL reaction mixture
Nature of the assay: biochemical. The following applies: for IC50: read-out: IC50; for inhibition at 1 µM: WT HIV-1 RT, 1 µM drug.

Another assay relates to WT virus (NL4-3). Description: microbe, parasite or virus in culture. The assay is classed as cell-based, HIV-1. The following applies: Human immunodeficiency virus 1, NL43, CEM-SS, read-out: EC50. The method, boiled down:
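CEM-SS cells (5 x 10^3/well) infected with HIV-1 at an MOI giving complete killing by day 6 (e.g., 0.01-0.05), with serial half-log compound dilutions in triplicate. After 6 days at 37°C, viability read by XTT reduction at 450 nm. CIC50 derived from protection against cytopathic killing.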

In the next assay the test system is NL4-3 (WT). Nature of the assay: Cytopathic cell killing assay, cross-resistance profile, infected MT-4 cells. The assay is classed as cell-based, HIV-1. Summed up:
(§1)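 Cells seeded at 5 x 10^3 per well and infected with pre-titered HIV at MOI giving full killing by day 6 (e.g., 0.01-0.05). Compounds tested in triplicate serial half-log dilutions. Viability measured after six days at 37°C by XTT formazan at 450 nm; TI50 = fold-difference between EC50 and IC50.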
In general terms: Cytopathic effects are the visible damage that an infection or toxin causes in cultured cells.

Assay [1] has as its system HIV-1 isolate 4xAZT/Y181C. Described as above. In kind it is cell-based. The method, boiled down:
as §1

In another assay the test system is HIV-1 isolate 4xAZT. The description is as above. In kind it is cell-based. Summed up: as §1
The test system of a further assay is HIV-1 variant A98G. The assay is described as above. In kind it is cell-based. The method, boiled down:
as §1

For the next assay, the system named is HIV-1 variant K101E. The assay is described as above. The assay is classed as cell-based. Summed up: as §1
The test system of the next assay is HIV-1 variant K103N. The description is as above. The assay is classed as cell-based. The note with it: isolate K103N. The method, boiled down:
as §1

A further assay concerns HIV-1 variant L100I. The assay is described as above. The assay is classed as cell-based. Summed up: as §1
The next assay deals with HIV-1 variant L74V. Described as above. In kind it is cell-based. The method, boiled down:
as §1

Another assay relates to HIV-1 variant V106A. The assay is described as above. The assay is classed as cell-based. The method, boiled down: as §1
For the next assay, the system named is HIV-1 variant V108I. The description is as above. The assay is classed as cell-based. Summed up: as §1
For another assay, the system named is HIV-1 variant V179D. The assay is described as above. In kind it is cell-based. The following applies: isolate V179D. The method, boiled down: as §1
For a further assay, the system named is HIV-1 variant Y181C. The description is as above. The note with it: isolate Y181C. The assay is classed as cell-based. The method, boiled down:
as §1

The next assay has as its system HIV-1 variant Y188C. Described as above. In kind it is cell-based. Summed up:
as §1

Assay [2] concerns HIV-1 isolate 4xAZT/L100I. The description is as above. In kind it is cell-based. The method, then:
The various HIV isolates tested in the Figures are those corresponding to wild-type virus (NL4-3) and the other strains listed by their RT mutations. The three 4xAZT isolates included in the Figures represent AZT drug-resistant variants. […]
Briefly, in this method cells (e.g., the CEM-SS cell line, available from the NIAID AIDS Research and Reference Program [ARRRP]) were seeded at a density of 5 x 10^3 cells/well, into the wells of a 96-well microtiter plate. The cells were then infected with HIV virus (either mutant or WT), at a multiplicity of infection (MOI) previously determined to provide complete cell killing by 6 days of culture post-infection (e.g., MOI of 0.01-0.05). Each of the HIV isolates was pre-titered to induce equivalent levels of infection based on cell killing or virus production, prior to their use in these assays. A range of test compound concentrations was added to the wells in triplicate (e.g., serial half-log dilutions) to evaluate inhibition of HIV infection. Controls for each assay included drug controls (drug colorimetric control wells), drug cytotoxicity control wells (cells with drug), virus control wells (cells with virus), and cell viability controls (cells only). Positive control drugs (e.g., AZT and ddC) were also run in parallel.
After six days of incubation at 37°C, cell viability was determined spectrophotometrically at 450 nm for each well, using the metabolic reduction of XTT to a soluble colored formazan. (See, Gartner and Popovic, "Virus Isolation and Production, in Aldovini and Walker (eds.), Techniques in HIV Research, Stockton Press, NY, pp. […] [1991]; and Nara and Fischinger, "Quantitative Infectivity Assay for HIV-1 and HIV-2," Nature 332:469-470 [1988]).
The in vitro therapeutic index (TI50) was defined as the fold-difference between the EC50 and IC50.

A further assay concerns HIV-1 variant M184l. The description is as above. The note with it: Human immunodeficiency virus 1, MT4. The assay is classed as cell-based. The method, boiled down: as §1
For a further assay, the system named is HIV-1 variant Y188H. The description is as above. In kind it is cell-based. The note with it: Human immunodeficiency virus 1, MT4. The method, boiled down: as §1
Where [3] appears, read: Table 11, CEMSS/NL4-3, NRVC = reduction in viral CPE not seen (footnote).
[4] abbreviates: Human immunodeficiency virus 1, MT4, Table 4.
The mark [5] stands for this setting: Human immunodeficiency virus 1, MT4, Table 9.
[6] abbreviates: Table 7, read-out: %inhibn (1µM).
The mark [7] stands for this setting: Table 7, concentration reducing cell killing or virus production by 50%, HIV-1 WT.
The mark [8] stands for this setting: Human immunodeficiency virus 1, NL43, MT4, Table 10 (values in µM), isolate NL4-3 (WT).
Setting [9] is: Human immunodeficiency virus 1, MT4, Table 10 (values in µM), isolate K101E.
Setting [10] is: Human immunodeficiency virus 1, MT4, Table 8.
[11] abbreviates: Human immunodeficiency virus 1, MT4, Table 10 (values in µM).
The mark [12] stands for this setting: Human immunodeficiency virus 1, MT4, Table 10 (values in µM), isolate L1001.
Where [13] appears, read: Human immunodeficiency virus 1, MT4, Table 10 (values in µM), isolate V108l.

Where two headings read alike, the source gives them in different places. Bounds are passed on as bounds.

One may read the IC50 as the concentration needed to halve the response being measured. By EC50 is commonly meant the midpoint of the concentration-response curve. Take `Fc1cccc(F)c1Cn1c(-c2c(F)cccc2F)nc2ccccc21` [compound 26, 1-(2,6-difluorobenzyl)-2-(2,6-difluorophenyl)benzimidazole]: the inhibition at 10 µM on HIV-1 WT RT (Table 1, WT RT, 10 µM drug concentration, read-out: %inhibn (10µM)) worked out at 93%. Moreover, the IC50 on HIV-1 WT RT (Table 1, quantity of drug required to reduce WT RT enzyme activity by 50%) worked out at 110 nM; at HIV-1 WT RT (Table 11, WT RT), 110 nM. Further, the “%inhibn (10µM)” value on HIV-1 WT RT (Table 2, WT RT, 10 µM drug concentration) is recorded as 93%. For the same molecule, the concentration giving a half-maximal response (EC50) is 1700 nM in the assay with WT virus (NL4-3) (setting [3]); 1.85 µM in the assay on NL4-3 (WT) (Human immunodeficiency virus 1, NL43, MT4, Table 4, isolate NL4-3 (WT)); 2.2 µM in the assay with NL4-3 (WT) (Human immunodeficiency virus 1, NL43, MT4, Table 9, isolate NL4.3); above 20 µM in [1] (Human immunodeficiency virus 1, MT4, Table 4, isolate 4xAZT/Y181C); 20 µM in [1] (Human immunodeficiency virus 1, MT4, Table 9, isolate 4XAZT /Y181C); 270 nM in the assay with HIV-1 isolate 4xAZT (Human immunodeficiency virus 1, MT4, Table 4, isolate 4xAZT). For the same molecule, the EC50 in the assay with HIV-1 isolate 4xAZT (Human immunodeficiency virus 1, MT4, Table 9, isolate 4XAZT) was 300 nM; with HIV-1 variant A98G (Human immunodeficiency virus 1, MT4, Table 4, isolate A98G), 4.75 µM; in the assay on HIV-1 variant A98G (Human immunodeficiency virus 1, MT4, Table 9, isolate A98G), 4.7 µM; in the assay on HIV-1 variant K101E (Human immunodeficiency virus 1, MT4, Table 4, isolate K101E) it was above 20 µM; in the assay with HIV-1 variant K101E (Human immunodeficiency virus 1, MT4, Table 9, isolate KIOIE), above 20 µM; in the assay with HIV-1 variant K103N (setting [4]), 12.9 µM. The EC50 in the assay on HIV-1 variant K103N (setting [5]) was above 10 µM; in the assay with HIV-1 variant L100I (Human immunodeficiency virus 1, MT4, Table 4, isolate L1001), 1.36 µM; with HIV-1 variant L100I (Human immunodeficiency virus 1, MT4, Table 9, isolate L1001), 1.3 µM; with HIV-1 variant L74V (Human immunodeficiency virus 1, MT4, Table 4, isolate L74V) it was 460 nM; in the assay with HIV-1 variant L74V (Human immunodeficiency virus 1, MT4, Table 9, isolate 1.74 V) it was 1900 nM; in the assay with HIV-1 variant V106A (Human immunodeficiency virus 1, MT4, Table 4, isolate V106A), above 20 µM. Also, the EC50 in the assay on HIV-1 variant V106A (Human immunodeficiency virus 1, MT4, Table 9, isolate V106A) is above 20 µM; with HIV-1 variant V108I (Human immunodeficiency virus 1, MT4, Table 4, isolate V108I), 10.4 µM; with HIV-1 variant V108I (Human immunodeficiency virus 1, MT4, Table 9, isolate V1081), above 10 µM; in the assay on HIV-1 variant V179D (setting [4]), 2300 nM; in the assay with HIV-1 variant V179D (setting [5]), 2900 nM; in the assay with HIV-1 variant Y181C (setting [4]), 15.2 µM. Moreover, the EC50 in the assay with HIV-1 variant Y181C (setting [5]) was 14 µM; in the assay on HIV-1 variant Y188C (Human immunodeficiency virus 1, MT4, Table 4, isolate Y188C), 11.7 µM; with HIV-1 variant Y188C (Human immunodeficiency virus 1, MT4, Table 9, isolate Y188C) it was above 10 µM; in [2] (Human immunodeficiency virus 1, MT4, Table 4, isolate 4xAZT/L.1001), 840 nM; in assay [2] (Human immunodeficiency virus 1, MT4, Table 9, isolate 4XAZT /L1001), 900 nM.
For the molecule `Fc1cccc(F)c1Cn1c(-c2c(F)cccc2F)nc2c(Cl)cccc21` [compound 55, 4-chloro-1-(2,6-difluorobenzyl)-2-(2,6-difluorophenyl)benzimidazole], the inhibition at 1 µM is 75% on HIV-1 WT RT (Table 6, average of two experiments done in triplicates, read-out: %Inhibn (1µM)) and 75% on HIV-1 WT RT (setting [6]). Also, the IC50 on HIV-1 WT RT (Table 7, HIV-1 WT RT) stood at 2630 nM; at HIV-1 WT RT (Table 11, WT RT) it was 2630 nM. The EC50 is 440 nM with WT virus (NL4-3) (setting [7]); 440 nM with WT virus (NL4-3) (setting [3]); 0.1 µM in the assay with NL4-3 (WT) (Human immunodeficiency virus 1, NL43, MT4, Table 8, isolate N1.43); 0.5 µM in the assay with NL4-3 (WT) (setting [8]); above 20 µM in assay [1] (Human immunodeficiency virus 1, MT4, Table 8, isolate 4XAZT /Y181C); 200 nM with HIV-1 isolate 4xAZT (Human immunodeficiency virus 1, MT4, Table 8, isolate 4XAZT). Besides, the EC50 with HIV-1 variant A98G (Human immunodeficiency virus 1, MT4, Table 8, isolate A9SG) is 5 µM; with HIV-1 variant K101E (Human immunodeficiency virus 1, MT4, Table 8, isolate K101E) it was above 20 µM; in the assay on HIV-1 variant K101E (setting [9]), above 20 µM; in the assay with HIV-1 variant K103N (setting [10]), above 20 µM; in the assay with HIV-1 variant K103N (setting [11]) it was 10.2 µM; with HIV-1 variant L100I (Human immunodeficiency virus 1, MT4, Table 8, isolate 1.1001) it was 0.2 µM. The EC50 was 0.3 µM with HIV-1 variant L100I (setting [12]); 500 nM in the assay with HIV-1 variant L74V (Human immunodeficiency virus 1, MT4, Table 8, isolate 1.74V); above 10 µM in the assay with HIV-1 variant V106A (Human immunodeficiency virus 1, MT4, Table 8, isolate V 106A); 3.6 µM with HIV-1 variant V108I (Human immunodeficiency virus 1, MT4, Table 8, isolate V1081); 3.2 µM in the assay with HIV-1 variant V108I (setting [13]); 800 nM with HIV-1 variant V179D (setting [10]). Further, the EC50 in the assay on HIV-1 variant Y181C (setting [11]) was 8.4 µM; with HIV-1 variant Y188C (Human immunodeficiency virus 1, MT4, Table 8, isolate Y 188C) it was 5.4 µM; in the assay on HIV-1 variant Y188C (Human immunodeficiency virus 1, MT4, Table 10 (values in µM), isolate Y188C), 3.4 µM; in [2] (Human immunodeficiency virus 1, MT4, Table 8, isolate 4XA7T L 1001) it was 200 nM.
For `O=[N+]([O-])c1cccc2c1nc(-c1c(F)cccc1F)n2Cc1c(F)cccc1F` [compound 48, 1-(2,6-difluorobenzyl)-2-(2,6-difluorophenyl)-4-nitrobenzimidazole], the IC50 at HIV-1 WT RT (Table 7, HIV-1 WT RT) is 1880 nM. Besides, at HIV-1 WT RT (setting [6]), the inhibition at 1 µM amounted to 51%. Besides, the EC50 in the assay with WT virus (NL4-3) (setting [7]) is 2400 nM; in the assay with NL4-3 (WT) (setting [8]) it was 3.13 µM; with HIV-1 variant K101E (setting [9]), above 50 µM; in the assay with HIV-1 variant K103N (setting [11]) it was above 50 µM; in the assay on HIV-1 variant L100I (setting [12]), 0.83 µM; with HIV-1 variant M184l it was 3.69 µM. Besides, the EC50 with HIV-1 variant V108I (setting [13]), in the assay with HIV-1 variant Y181C (setting [11]) and with HIV-1 variant Y188H was above 50 µM in each case.

Values taken from patent EP1210336B1, “SUBSTITUTED BENZIMIDAZOLES AS NON-NUCLEOSIDE INHIBITORS OF REVERSE TRANSCRIPTASE” (THE UNITED STATES OF AMERICA, as represented by the …, priority 1999, dated 2001).
